Assay results reported in US9115092B2, “Substituted quinazoline and pyrido-pyrimidine derivatives” (Asana Biosciences, LLC, priority 2010, dated 2015).

What was measured:
[1] = target: T1, PI3Kα (wild-type), P110/P85α (Homo sapiens, UniProt P42336); test: PI3 Kinase TR-FRET assay, PI3Kα (wild-type); assay type: biochemical
T1 construct: made in house; host or cells: SF9 insect cells
Outline: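 Sf9-expressed His-purified P110/P85α (5 ng) preincubated 60 min RT with compound and PIP2 in buffer with 40 mM MgCl2, 5 mM DTT; reaction started with ATP (PIP2 and ATP both 10 μM), 30 min RT. PIP3 detected by TR-FRET displacement, 665/615 nm ratio; IC50 from dose-response curves.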

mTOR kinase = target: T2, mTOR kinase (Homo sapiens, UniProt P42345); test: mTOR kinase TR-FRET assay; assay type: biochemical; conditions: read-out: mTO R
T2 construct: purchased Millipore, USA
Outline: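 Compounds preincubated 60 min with mTOR (5 ng) in HEPES pH 7.5, EGTA, MnCl2; ULight-p70 S6K Thr389 peptide (50 nM) and ATP (20 μM) then added, 60 min at room temperature. EDTA-stopped, Eu-anti-phospho antibody detection by TR-FRET (665/615 nm); IC50 from variable-slope sigmoidal fit.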

[2] = system: pAKT(T308) (phosphorylated at threonine 308), PC3 cells; test: In-cell Western assay, pAKT(T308) in PC3 cells; assay type: cell-based; conditions: Homo sapiens, PC-3, In-cell Western
Procedure: Cells from human prostate cancer cell line PC3 (American Type Culture Collection (ATCC), Manassas, Va. 20108 USA) were seeded at an optimal density of 22,000 cell/well in 96-well plates containing Ham's F12K medium (90 μL) and incubated overnight. The compound dilutions were carried out in 100% DMSO followed by a dilution in the medium. Test compounds were added in serial dilutions to the wells and incubated for 2 h. The cells were washed and fixed with 4% paraformaldehyde. After incubation at room temperature for 1 h in the dark, blocking was done for 2 h at room temperature. Primary antibodies for phosphorylated (p) AKT(5473) (phosphorylated at serine 473), pAKT(T308) (phosphorylated at threonine 308) and for pS6RP(S235/236) (phosphorylated at serine 235/236) (commercially available from Cell Signaling Technology®, whose protocol was followed for the in-cell western assay, were diluted to the required concentration and added to the corresponding wells followed by overnight incubation at 4° C. Eu-labeled rabbit (PE) (Perkin-Elmer USA catalog #AD0106) secondary antibody was added and incubated for 2 h at room temperature. Delfia® enhancement solution (cat #1244-105, Perkin Elmer USA) was subsequently added to the plate before taking the reading at 615 nm with excitation wavelength of 340 nm, after which 0.5 μg/mL of Hoechst® 33258 dye (Catalog #86140-5, Sigma) was added to the plate and fluorescence emission was read at 460 nm with 355 nm excitation, to evaluate the correction factor. IC50 values were calculated using a sigmoidal dose-response curve fit in GraphPad Prism® v5 software.

PC3 cells = test: XTT assay for cell viability, PC3 cells; assay type: cell-based, human; conditions: Homo sapiens, PC-3, cell viability
Outline: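 PC3 cells seeded at 1000 cells/well, grown 24 h, then exposed to serial dilutions of compound for 96 h. Viability read by XTT dye at 37° C, absorbance 465 nm. EC50 from sigmoidal dose-response fit.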

T1 sequence (P42336 whole entry): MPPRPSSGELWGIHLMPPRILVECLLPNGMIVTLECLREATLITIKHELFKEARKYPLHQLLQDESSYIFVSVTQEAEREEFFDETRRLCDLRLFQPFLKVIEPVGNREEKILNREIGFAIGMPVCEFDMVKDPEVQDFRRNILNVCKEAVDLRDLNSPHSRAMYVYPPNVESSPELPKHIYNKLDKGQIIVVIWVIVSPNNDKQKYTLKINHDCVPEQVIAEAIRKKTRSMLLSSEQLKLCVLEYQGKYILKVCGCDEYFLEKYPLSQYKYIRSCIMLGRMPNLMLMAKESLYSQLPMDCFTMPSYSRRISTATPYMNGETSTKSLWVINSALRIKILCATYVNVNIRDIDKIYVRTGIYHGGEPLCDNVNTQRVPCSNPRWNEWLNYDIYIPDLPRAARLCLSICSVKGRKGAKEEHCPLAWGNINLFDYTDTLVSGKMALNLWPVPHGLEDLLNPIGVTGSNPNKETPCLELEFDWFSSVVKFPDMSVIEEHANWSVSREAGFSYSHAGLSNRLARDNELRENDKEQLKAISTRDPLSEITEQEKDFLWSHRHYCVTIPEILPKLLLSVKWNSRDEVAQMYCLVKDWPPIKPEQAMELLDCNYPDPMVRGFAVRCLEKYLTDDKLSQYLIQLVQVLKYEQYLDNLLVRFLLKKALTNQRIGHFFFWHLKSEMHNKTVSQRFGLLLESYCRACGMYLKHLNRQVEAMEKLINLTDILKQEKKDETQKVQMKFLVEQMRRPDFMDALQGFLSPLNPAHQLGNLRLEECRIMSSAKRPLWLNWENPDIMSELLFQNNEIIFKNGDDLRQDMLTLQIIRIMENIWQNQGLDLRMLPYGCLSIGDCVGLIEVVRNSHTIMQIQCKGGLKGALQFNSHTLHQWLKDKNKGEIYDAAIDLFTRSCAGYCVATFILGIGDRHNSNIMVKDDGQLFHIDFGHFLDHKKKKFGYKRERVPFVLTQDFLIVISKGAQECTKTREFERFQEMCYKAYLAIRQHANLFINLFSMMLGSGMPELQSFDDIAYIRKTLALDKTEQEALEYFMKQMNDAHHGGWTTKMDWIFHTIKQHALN
T1 sequence (P27986 whole entry partner): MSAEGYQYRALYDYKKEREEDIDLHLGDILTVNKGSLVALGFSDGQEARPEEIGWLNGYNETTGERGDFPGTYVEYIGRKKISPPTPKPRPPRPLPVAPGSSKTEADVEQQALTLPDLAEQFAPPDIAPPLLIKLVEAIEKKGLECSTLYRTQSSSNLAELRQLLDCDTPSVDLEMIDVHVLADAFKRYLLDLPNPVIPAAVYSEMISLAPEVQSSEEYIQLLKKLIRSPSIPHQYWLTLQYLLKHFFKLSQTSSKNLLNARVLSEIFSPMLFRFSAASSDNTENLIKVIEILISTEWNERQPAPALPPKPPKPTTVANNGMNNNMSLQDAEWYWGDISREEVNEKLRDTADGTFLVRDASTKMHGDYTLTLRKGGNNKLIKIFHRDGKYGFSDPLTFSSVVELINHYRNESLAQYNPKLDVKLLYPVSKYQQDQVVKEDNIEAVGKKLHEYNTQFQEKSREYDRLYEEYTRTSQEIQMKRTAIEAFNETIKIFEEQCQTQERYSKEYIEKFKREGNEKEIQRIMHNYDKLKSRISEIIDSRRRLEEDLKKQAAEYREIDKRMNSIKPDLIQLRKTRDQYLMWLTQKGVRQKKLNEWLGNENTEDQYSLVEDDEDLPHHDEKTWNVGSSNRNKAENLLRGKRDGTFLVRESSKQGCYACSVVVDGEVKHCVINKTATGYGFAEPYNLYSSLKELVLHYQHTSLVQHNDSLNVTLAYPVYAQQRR

| SMILES | IC50 [1] [nM] | IC50 (mTOR kinase) [nM] | IC50 [2] [nM] | IC50 (PC3 cells) [nM] |
| --- | --- | --- | --- | --- |
| CN(C)C(=O)c1ccc(NC(=O)Nc2ccc(-c3nc(N4CCOCC4)c4ccc(-c5cncnc5)cc4n3)cc2)cc1 [Example 1, N,N-Dimethyl-4-(3-{4-[4-morpholin-4-yl-7-pyrimidin-5-yl-quinazolin-2-yl)-phenyl]-ureido}-benzamide] | < 50 | < 50 | 501 to 5000 | 100 to 500 |
| CN(C)C(=O)c1ccc(NC(=O)Nc2ccc(-c3nc(N4CCOCC4)c4ccc(-c5cccnc5F)cc4n3)cc2)c(F)c1 [Example 146, 3-fluoro-4-(3-(4-(7-(2-fluoropyridin-3-yl)-4-morpholino-quinazolin-2-yl)phenyl)ureido)-N,N-dimethyl-benzamide] | 50 to 200 | < 50 | < 100 | 201 to 10000 |

The next lines start with the values.

| IC50 [1] [nM] | IC50 (mTOR kinase) [nM] | IC50 [2] [nM] | IC50 (PC3 cells) [nM] | SMILES |
| --- | --- | --- | --- | --- |
| < 50 | < 50 | 100 to 500 | < 100 | Cc1ccc(-c2ccc3c(N4CCOCC4)nc(-c4ccc(NC(=O)Nc5ccc(C(=O)N(C)C)cc5)cc4)nc3c2)o1 [Example 2, N,N-Dimethyl-4-(3-{4-[7-(5-methyl-furan-2-yl)-4-morpholin-4-yl-quinazolin-2-yl]-phenyl}-ureido)-benzamide] |
| < 50 | < 50 | – | 100 to 500 | CN(C)C(=O)c1ccc(NC(=O)Nc2ccc(-c3nc(N4CCOCC4)c4ccc(-c5ccco5)cc4n3)cc2)cc1 [Example 51, 4-{3-[4-(7-furan-2-yl-4-morpholin-4-yl-quinazolin-2-yl)-phenyl]-ureido}-N,N-dimethyl-benzamide] |
| < 50 | < 50 | < 100 | 201 to 10000 | CN(C)C(=O)c1ccc(NC(=O)Nc2ccc(-c3nc(N4CCOCC4)c4ccc(-c5cncnc5)cc4n3)cc2)c(F)c1 [Example 133, 3-fluoro-N,N-dimethyl-4-(3-(4-(4-morpholino-7-(pyrimidin-5-yl)quinazolin-2-yl)phenyl)ureido)-benzamide] |
| < 50 | < 50 | < 100 | < 100 | CN(C)C(=O)c1ccc(NC(=O)Nc2ccc(-c3nc(N4CCOCC4)c4ccc(-c5cccnc5)cc4n3)cc2)c(F)c1 [Example 152, 3-fluoro-N,N-dimethyl-4-(3-(4-(4-morpholino-7-(pyridin-3-yl)quinazolin-2-yl)phenyl)ureido)-benzamide] |
